≈ marks a conversion by molar mass, not a printed value.
Columns and labels:
[1] = Lipophilicity, log D of the compound at pH 7.4; assay type: physicochemical; conditions: buffer
[2] = Metabolic stability in mouse liver microsome assessed as compound remaining at 500 uM measured at 10 mins by LC-MS/MS method; assay type: ADME; conditions: liver microsomes, read-out: Stability
[3] = Metabolic stability in mouse liver microsome assessed as compound remaining at 500 uM measured at 60 mins by LC-MS/MS method; assay type: ADME; conditions: liver microsomes, read-out: Stability
[4] = Metabolic stability in human liver microsome assessed as compound remaining at 500 uM measured at 60 mins by LC-MS/MS method; assay type: ADME; conditions: liver microsomes, read-out: Stability
[5] = Solubility of compound in PBS at pH 7.0 at 100 uM measured for 20 mins by LC-MS/MS analysis; assay type: physicochemical
[6] = Metabolic stability in human liver microsome assessed as compound remaining at 500 uM measured at 10 mins by LC-MS/MS method; assay type: ADME; conditions: liver microsomes, read-out: Stability
[7] = Apparent permeability of the compound in human Caco-2 cells at 25 uM measured after 2 hrs by LC-MS/MS analysis; assay type: ADME, cell-based
[8] = biological target: T1, MAO-B (amine oxidase [flavin-containing] B) (Homo sapiens, UniProt P27338); assay: Inhibition of human MAO-B assessed as residual activity at 10 uM relative to control; conditions: read-out: Activity
T1 sequence (P27338 whole entry): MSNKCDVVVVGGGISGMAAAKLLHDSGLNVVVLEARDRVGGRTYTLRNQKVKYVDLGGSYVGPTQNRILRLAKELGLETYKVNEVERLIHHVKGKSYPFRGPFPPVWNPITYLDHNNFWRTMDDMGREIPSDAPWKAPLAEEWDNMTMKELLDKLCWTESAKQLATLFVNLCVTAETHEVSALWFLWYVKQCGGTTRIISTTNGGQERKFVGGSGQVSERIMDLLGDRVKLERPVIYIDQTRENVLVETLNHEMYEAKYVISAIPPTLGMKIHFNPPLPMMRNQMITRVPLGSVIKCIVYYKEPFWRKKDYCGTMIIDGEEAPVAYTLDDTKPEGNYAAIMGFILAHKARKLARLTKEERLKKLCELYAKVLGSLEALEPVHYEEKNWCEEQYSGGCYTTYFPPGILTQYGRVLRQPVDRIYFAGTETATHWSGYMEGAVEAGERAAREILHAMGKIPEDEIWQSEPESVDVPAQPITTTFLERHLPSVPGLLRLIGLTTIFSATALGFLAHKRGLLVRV

Rattus norvegicus = species: Rattus norvegicus; assay: Inhibition of rat brain stem MAO at 2 mM using serotonin as substrate incubated for 30 mins by fluorometric analysis relative to control; assay type: tissue-based; conditions: Brainstem
SH-SY5Y = assay: Cytotoxicity against human SH-SY5Y cells assessed as inhibition of cell viability at 10 uM after 24 hrs by MTS assay relative to control; assay type: functional
[9] = biological target: T2, Amine oxidase [flavin-containing] A (Homo sapiens, UniProt P21397); assay: Inhibition of human MAO-A measure after 1 hr by microplate reader analysis
T2 sequence (P21397 whole entry): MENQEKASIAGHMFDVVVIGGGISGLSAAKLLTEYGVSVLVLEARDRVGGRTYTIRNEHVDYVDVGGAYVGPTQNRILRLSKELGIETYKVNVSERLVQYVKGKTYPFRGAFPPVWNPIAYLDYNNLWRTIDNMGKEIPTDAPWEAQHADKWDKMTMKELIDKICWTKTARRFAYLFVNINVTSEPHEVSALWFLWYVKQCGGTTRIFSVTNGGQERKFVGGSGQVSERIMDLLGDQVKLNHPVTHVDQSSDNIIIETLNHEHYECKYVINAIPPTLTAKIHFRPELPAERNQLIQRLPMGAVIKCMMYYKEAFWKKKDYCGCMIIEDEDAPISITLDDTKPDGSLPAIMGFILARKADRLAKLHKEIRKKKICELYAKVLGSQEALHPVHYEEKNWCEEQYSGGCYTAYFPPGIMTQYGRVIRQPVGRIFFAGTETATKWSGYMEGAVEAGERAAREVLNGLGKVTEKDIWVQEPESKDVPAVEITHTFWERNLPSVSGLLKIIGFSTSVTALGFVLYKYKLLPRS

[10] = biological target: T3, Amine oxidase [flavin-containing] B (Homo sapiens, UniProt P27338); assay: Inhibition of human MAO-B measure after 1 hr by microplate reader analysis
T3 sequence (P27338 whole entry): T1 sequence (P27338 whole entry)

[11] = biological target: T4, Amine oxidase [flavin-containing] B (Mus musculus, UniProt Q8BW75); assay: Inhibition of mouse MAO-B
T4 sequence (Q8BW75 whole entry): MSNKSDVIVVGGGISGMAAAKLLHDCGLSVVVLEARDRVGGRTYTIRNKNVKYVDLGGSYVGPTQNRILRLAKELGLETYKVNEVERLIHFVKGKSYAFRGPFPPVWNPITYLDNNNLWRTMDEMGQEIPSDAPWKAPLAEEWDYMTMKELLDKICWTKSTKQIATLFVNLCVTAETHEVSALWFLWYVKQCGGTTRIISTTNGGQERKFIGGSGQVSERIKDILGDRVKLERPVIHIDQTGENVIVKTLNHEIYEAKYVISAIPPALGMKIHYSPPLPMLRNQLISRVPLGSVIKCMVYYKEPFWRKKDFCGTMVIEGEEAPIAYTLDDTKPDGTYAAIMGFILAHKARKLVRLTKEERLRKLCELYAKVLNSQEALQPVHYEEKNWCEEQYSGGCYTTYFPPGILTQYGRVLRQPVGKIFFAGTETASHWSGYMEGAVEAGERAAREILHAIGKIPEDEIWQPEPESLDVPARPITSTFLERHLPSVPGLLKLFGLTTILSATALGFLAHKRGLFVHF

[12] = biological target: T5, Amine oxidase [flavin-containing] A (Mus musculus, UniProt Q64133); assay: Inhibition of mouse MAO-A
T5 sequence (Q64133 whole entry): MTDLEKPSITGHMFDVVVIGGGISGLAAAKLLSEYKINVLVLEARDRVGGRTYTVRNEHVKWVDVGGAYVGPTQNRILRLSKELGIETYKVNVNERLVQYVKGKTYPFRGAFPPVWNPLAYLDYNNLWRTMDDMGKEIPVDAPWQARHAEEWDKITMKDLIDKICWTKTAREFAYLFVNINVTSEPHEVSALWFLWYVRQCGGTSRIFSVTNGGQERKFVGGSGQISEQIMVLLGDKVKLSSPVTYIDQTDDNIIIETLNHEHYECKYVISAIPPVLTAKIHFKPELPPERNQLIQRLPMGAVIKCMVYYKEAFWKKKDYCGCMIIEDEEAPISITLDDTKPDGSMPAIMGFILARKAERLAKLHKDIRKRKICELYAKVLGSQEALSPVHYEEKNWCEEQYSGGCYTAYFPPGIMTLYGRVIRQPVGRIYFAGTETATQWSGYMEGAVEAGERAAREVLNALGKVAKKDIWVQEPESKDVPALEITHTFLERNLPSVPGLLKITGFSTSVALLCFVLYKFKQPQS

[13] = biological target: T2, Amine oxidase [flavin-containing] A; assay: Inhibition of recombinant human MAO-A

| Compound | logD [1] | remaining at 10 min [2] [%] | remaining at 1 h [3] [%] | remaining at 1 h [4] [%] | solubility at 20 min, 100 µM [5] [µM] | remaining at 10 min [6] [%] | Papp at 2 h, 25 µM [7] [×10⁻⁶ cm/s] | activity at 10 µM [8] [%] | inhibition (Rattus norvegicus) [%] | Activity (SH-SY5Y) [%] | IC50 [9] [µM] | IC50 [10] [µM] | IC50 [11] [µM] | IC50 [12] [µM] | IC50 [13] [µM] |
| --- | --- | --- | --- | --- | --- | --- | --- | --- | --- | --- | --- | --- | --- | --- | --- |
| COc1cc2c(cc1OC)C(C)N(c1ccc(C=O)cc1)CC2 (centres undefined) | 4 | 15.5 | 1 | 18 | 22.2 (≈ 6.91 µg/mL) | 66.1 | 7.4 |  |  |  |  |  |  |  |  |
| COc1cc2c(cc1OC)C(C)N(c1ccc(CO)cc1)CC2 (centres undefined) | 3.4 | 83.4 | 33.8 | 78.4 | 89.8 (≈ 28.1 µg/mL) | 91.3 | 34.4 |  |  |  |  |  |  |  |  |
| COc1cc2c(cc1OC)CN(c1ccccn1)CC2 | 3.7 | 9.9 | 0.2 | 17.7 | 0.8 (≈ 0.216 µg/mL) | 70.8 | 38.8 | 89 |  |  |  |  |  |  |  |
| COc1cc2c(cc1OC)[C@@H](C)NCC2 |  |  |  |  |  |  |  |  | 48 |  |  |  |  |  |  |
| COc1cc2c(cc1OC)CN(c1ccccc1)CC2 | 4.5 | 3.7 | 0.4 | 10.5 | 19.1 (≈ 5.14 µg/mL) | 63.9 | 21 | 81 |  |  |  |  |  |  |  |
| COc1cc2c(cc1OC)CN(c1cccc(O)c1)CC2 | 3.2 | 22.5 | 0.5 | 72.1 | 89.6 (≈ 25.6 µg/mL) | 94.7 | 43.7 | 107 |  |  |  |  |  |  |  |
| COc1cc2c(cc1OC)CN(c1cccnc1)CC2 | 3.7 | 9.5 | 0.2 | 15.5 | 78.9 (≈ 21.3 µg/mL) | 66.9 | 39.5 | 86 |  |  |  |  |  |  |  |
| COc1cc2c(cc1OC)CN(c1ccc(CO)cc1)CC2 | 3.1 | 92.6 | 64.4 | 79.5 | 93.9 (≈ 28.1 µg/mL) | 97.8 | 26.8 | 79 |  |  |  |  |  |  |  |
| COC(=O)c1ccccc1N1CCc2cc(OC)c(OC)cc2C1 | 4.3 | 0.4 | 0.1 | 0.2 | 12.7 (≈ 4.16 µg/mL) | 7.2 | 2.1 | 103 |  |  |  |  |  |  |  |
| COc1ccc(N2CCc3cc(OC)c(OC)cc3C2)cc1 | 4.2 | 12.1 | 1.7 | 53.5 | 3.7 (≈ 1.11 µg/mL) | 77.1 | 10.1 | 95 |  |  |  |  |  |  |  |
| COc1cc2c(cc1OC)CN(c1cc(F)cc(F)c1)CC2 |  |  |  |  |  |  |  | 24 |  | 97.3 | > 100 | 5.1 |  |  |  |
| COc1cc2c(cc1OC)CN(c1ccc(C(=O)O)cc1)CC2 | 2.5 | 91.6 | 91.8 | 88.4 | ≥ 95 | 91.8 | 81.2 | 97 |  |  |  |  |  |  |  |
| COc1cc2c(cc1OC)C(C)N(c1ccc(F)cc1)CC2 (centres undefined) | 4.8 | 1.2 | 0.3 | 23.2 | 7.6 (≈ 2.29 µg/mL) | 71.1 | 8.3 |  |  |  |  |  |  |  |  |
| COc1cc2c(cc1OC)CN(c1cc(C(F)(F)F)cc(C(F)(F)F)c1)CC2 | 5.7 | 83.1 | 26.9 | 62.2 | < 0.5 | 98.7 | < 0.1 | 86 |  |  |  |  |  |  |  |
| COc1cc2c(cc1OC)CNCC2 |  |  |  |  |  |  |  | 96 |  |  |  |  | > 1000 | > 100 |  |
| COc1cc2c(cc1OC)CN(CCCOc1ccc(C(C)=O)c(O)c1)CC2 |  |  |  |  |  |  |  |  |  |  |  |  |  |  | 8.1 |
| COc1cc2c(cc1OC)CN(c1ccc(C=O)cc1)CC2 | 3.7 | 12.6 | 0.4 | 9.2 | 6.6 (≈ 1.96 µg/mL) | 61 | 2.8 | 14 |  | 99 | > 100 | 1.55 |  |  |  |
| COc1cc2c(cc1OC)CN(c1ccc(F)cc1)CC2 | 4.5 | 2.5 | 0.6 | 56.9 | 20.3 (≈ 5.83 µg/mL) | 56.8 | 20.4 | 57 |  | 104 | > 100 | 13.5 |  |  |  |
